Results published in article PMC7802075 (ACS Infectious Diseases, 2020).
Counter-ions that a name gives are not always drawn. Where a SMILES comes first, the peptide text is derived from it. The star is where a group is joined. Tfa = O=C(C(F)(F)F)*

target: T1, LmjIPCS (inositol phosphorylceramide synthase from L. major) (Leishmania major, UniProt E9AFX2); experiment: biochemical; assay type: biochemical; design: inhibition: dose or concentration left out as unconfirmed; conditions: not given
T1 sequence (E9AFX2 1-338): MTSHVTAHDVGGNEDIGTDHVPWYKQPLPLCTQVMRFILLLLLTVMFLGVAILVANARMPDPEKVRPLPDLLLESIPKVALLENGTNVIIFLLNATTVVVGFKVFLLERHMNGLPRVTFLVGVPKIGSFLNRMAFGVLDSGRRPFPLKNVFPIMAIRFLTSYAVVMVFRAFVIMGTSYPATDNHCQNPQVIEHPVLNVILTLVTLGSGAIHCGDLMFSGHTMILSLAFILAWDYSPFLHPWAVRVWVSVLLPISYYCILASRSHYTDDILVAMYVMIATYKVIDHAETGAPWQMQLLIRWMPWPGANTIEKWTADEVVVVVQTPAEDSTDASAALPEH

First: O=C(O)c1cc2cc(F)ccc2[nH]1 [5-FLUOROINDOLE-2-CARBOXYLIC ACID]
Second: COc1ccc2[nH]cc(CCN)c2c1 [MEXAMINE]
The “20mM inhibition LmjIPCS” value of the first is higher: 51% for the first, 25% for the second.

First: CCC1(CC)C(=O)C=CNC1=O [PYRITHYLDIONE]
Second: C[C@H]1C[C@H]2[C@@H]3CCC4=CC(=O)C=C[C@]4(C)[C@@]3(F)[C@@H](O)C[C@]2(C)[C@@]1(O)C(=O)CO [BETAMETHASONE]
The “20mM inhibition LmjIPCS” value of the first is higher: 52% for the first, 45% for the second.

Going from `COc1ccc2cc1Oc1ccc(cc1)C[C@H]1c3cc(c(OC)cc3CCN1C)Oc1c(OC)c(OC)cc3c1[C@H](C2)N(C)CC3` [TETRANDRINE] to `CN1CCN(C2=Nc3ccccc3Oc3ccc(Cl)cc32)CC1` [LOXAPINE], the “20mM inhibition LmjIPCS” value rises from 65% to 68%.

Compared with `CCCCCC(=O)O[C@]1(C(C)=O)CC[C@H]2[C@@H]3CCC4=CC(=O)CC[C@]4(C)[C@H]3CC[C@@]21C` [HYDROXYPROGESTERONE CAPROATE], `COc1ccc2c(c1)[C@]13CCCC[C@@H]1[C@H](C2)N(C)CC3` [DEXTROMETHORPHAN] is higher in “20mM inhibition LmjIPCS” value: 57% for the first, 64% for the second.

Going from `CNNC` [1,2-DIMETHYLHYDRAZINE] to `CC(=O)OCC[N+](C)(C)C` [ACETYLCHOLINE], the “20mM inhibition LmjIPCS” value rises from 15% to 58%.

Compared with `Cc1ccc(/N=C/N(C)/C=N/c2ccc(C)cc2C)c(C)c1` [AMITRAZ], `CCCCCCc1ccc(O)cc1O.Nc1c2ccccc2nc2ccccc12` [ACRISORCIN] is lower in “20mM inhibition LmjIPCS” value: 55% for the first, 30% for the second.

Compared with `CC1=C(C(=O)O)N2C(=O)[C@@H](NC(=O)[C@H](N)C3=CCC=CC3)[C@H]2SC1` [CEPHRADINE], `O=C(O)c1cc([N+](=O)[O-])ccc1NCCCc1ccccc1` [5-NITRO-2-PHENYLPROPYLAMINOBENZOIC ACID] is lower in “20mM inhibition LmjIPCS” value: 40% for the first, 15% for the second.

Going from `CC(=O)N[C@@H]1[C@@H](O)[C@H](O)[C@@H](CO)O[C@H]1O` [ACETYLGLUCOSAMINE] to `CC(=O)N1CCN(c2ccc(OCC3COC(Cn4ccnc4)(c4ccc(Cl)cc4Cl)O3)cc2)CC1` (stereo not shown) [KETOCONAZOLE], the “20mM inhibition LmjIPCS” value rises from -19% to 69%.

Going from `NC(=O)c1cc([N+](=O)[O-])cc([N+](=O)[O-])c1` [NITROMIDE] to `OC(CCN1CCCCC1)(c1ccccc1)C1CCCCC1` (stereo not shown) [TRIHEXYPHENIDYL], the “20mM inhibition LmjIPCS” value rises from 9% to 57%.

same assay, conditions: NINDS set screen, single concentration 20mM as printed

In the case of `Cc1c(N(C)CS(=O)(=O)[O-])c(=O)n(-c2ccccc2)n1C.[Na+]` [DIPYRONE], the “20mM inhibition LmjIPCS” value is reported as -7.57%.

same assay, conditions: NINDS set screen, single concentration printed as 20mM

Going from `CC[C@@H](C(=O)[C@@H](C)[C@@H](O)[C@H](C)CCc1ccc(C)c(O)c1C(=O)[O-])[C@H]1O[C@](CC)([C@H]2CC[C@](O)(CC)[C@H](C)O2)C[C@@H]1C.[Na+]` [LASALOCID SODIUM] to `CC(C)NCC(O)c1ccc2ccccc2c1` (stereo not shown) [PRONETALOL], the “20mM inhibition LmjIPCS” value rises from 41% to 60%.

Going from `c1ccc2c(Cc3c[nH]c4ccccc34)c[nH]c2c1` [3,3'-DIINDOLYLMETHANE] to `CC12CC3CC(C)(C1)CC(N)(C3)C2` [MEMANTINE], the “20mM inhibition LmjIPCS” value rises from 37% to 66%.

For `O=C(O)CCCC[C@@H]1CCSS1` (racemic) [THIOCTIC ACID], the “20mM inhibition LmjIPCS” value was 55%.

same assay, conditions: NINDS set screen; read-out: inhibition LmjIPCS

First: N[C@@H](CCC(=O)N[C@@H](CSC(CC(=O)O)C(=O)O)C(=O)NCC(=O)O)C(=O)O (stereo partly drawn) [S-(1,2-DICARBOXYETHYL)GLUTATHIONE]
Second: NCC[C@H](O)C(=O)N[C@@H]1C[C@H](N)[C@@H](O[C@H]2O[C@H](CN)[C@@H](O)[C@H](O)[C@H]2O)[C@H](O)[C@H]1O[C@H]1O[C@H](CO)[C@@H](O)[C@H](N)[C@H]1O [AMIKACIN]
The inhibition of the first is lower: 14% for the first, 21% for the second.

Going from `CC1=C(/C=C/C(C)=C/C=C/C(C)=C/C=C/C=C(C)/C=C/C=C(C)/C=C/C(=O)[C@]2(C)C[C@@H](O)CC2(C)C)C(C)(C)C[C@H](O)C1` [CAPSANTHIN] to `O=C(CCc1ccc(O)cc1)c1c(O)cc(O)cc1O[C@@H]1O[C@H](CO)[C@@H](O)[C@H](O)[C@H]1O` [PHLORIDZIN], the inhibition falls from 33% to 15%.

Compared with `NCC(O)c1ccc(O)cc1` (stereo not shown) [OCTOPAMINE HYDROCHLORIDE], `CC[C@]12CCCN3CCc4c(n(c5ccccc45)[C@@](O)(C(=O)OC)C1)[C@@H]32` [VINCAMINE] is lower in inhibition: 33% for the first, -17% for the second.

`CC(=O)/N=c1/sc(S(N)(=O)=O)nn1C` [METHAZOLAMIDE] showed an inhibition of -4.59%.

same assay, conditions: read-out: 20mM inhibition LmjIPCS

Going from `CN(C)CCC(c1ccc(Br)cc1)c1ccccn1` (stereo not shown) [BROMPHENIRAMINE] to `CC(C(=O)O)c1cccc(Oc2ccccc2)c1` (stereo not shown) [FENOPROFEN], the inhibition at 20000 µM falls from 14% to 6%.

Compared with `Cn1nnnc1SCC1=C(C(=O)O)N2C(=O)[C@@H](NC(=O)[C@H](O)c3ccccc3)[C@H]2SC1` [CEFAMANDOLE], `O=C1NS(=O)(=O)c2ccccc21` [SACCHARIN] is lower in inhibition at 20000 µM: 10% for the first, 3.67% for the second.

First: N[C@H](CO)Cc1ccccc1 [L-PHENYLALANINOL]
Second: NCc1ccc(S(N)(=O)=O)cc1 [MAFENIDE]
The inhibition at 20000 µM of the first is higher: 24% for the first, 11% for the second.

Compared with `CCC[C@H](N[C@@H](C)C(=O)N1[C@H](C(=O)O)C[C@@H]2CCCC[C@@H]21)C(=O)OCC` [PERINDOPRIL], `CC1CCC(NC(=O)N(CCCl)N=O)CC1` (stereo not shown) [SEMUSTINE] is higher in inhibition at 20000 µM: 2% for the first, 15% for the second.

Going from `O=C1NC(=O)C(=O)C(=O)N1` [ALLOXAN] to `Cn1cnc2c1c(=O)[nH]c(=O)n2C` [THEOBROMINE], the inhibition at 20000 µM rises from -1.11% to 24%.

Compared with `C[C@]12CC[C@@H]3c4ccc(O)cc4CC[C@H]3[C@@H]1CCC2=O` [ESTRONE], `C#C[C@]1(OC(C)=O)CC[C@H]2[C@@H]3CCC4=CC(=O)CC[C@@H]4[C@H]3CC[C@@]21C` [NORETHINDRONE ACETATE] is higher in inhibition at 20000 µM: 1.15% for the first, 30% for the second.

Going from `CN(C)C(=O)Oc1ccc[n+](C)c1` [PYRIDOSTIGMINE BROMIDE] to `CN(C)C(=O)Oc1cccc([N+](C)(C)C)c1` [NEOSTIGMINE BROMIDE], the inhibition at 20000 µM rises from -5.55% to 20%.

First: CC(C)(Sc1cc(C(C)(C)C)c(O)c(C(C)(C)C)c1)Sc1cc(C(C)(C)C)c(O)c(C(C)(C)C)c1 [PROBUCOL]
Second: Cc1cccc(Nc2ccncc2S(=O)(=O)NC(=O)NC(C)C)c1 [TORSEMIDE]
The inhibition at 20000 µM of the first is lower: 25% for the first, 29% for the second.

Compared with `c1ccc2c(c1)CCCC2C1=NCCN1` (stereo not shown) [TETRAHYDROZOLINE], `C[N+]1(C)CCCC(OC(=O)C(O)(c2ccccc2)c2ccccc2)C1` (stereo not shown) [MEPENZOLATE BROMIDE] is higher in inhibition at 20000 µM: 8% for the first, 16% for the second.

`CC(C)[C@H](NC(=O)[C@H](Cc1ccc(O)cc1)NC(=O)[C@@H](NC(=O)C(F)(F)F)C(C)C)C(=O)O` [Tfa-VAL-TYR-VAL-OH] (Tfa-Val-Tyr-Val-OH) and `NC(=O)c1ccc(N)nc1` [6-AMINONICOTINAMIDE] are the same in inhibition at 20000 µM: 7.54% for the first, 7.54% for the second.

First: O=C1C=C2C=C[C@@H]3C[C@@]2(O1)[C@H]1CCCCN31 [SECURININE]
Second: CN[C@@H]1[C@@H](O)[C@@H](O[C@@H]2[C@@H](O)[C@H](O[C@H]3O[C@H]([C@@H](C)O)[C@@H](O)[C@H](O)[C@H]3N)[C@@H](N)C[C@H]2N)OC[C@]1(C)O [GENETICIN]
The inhibition at 20000 µM of the first is lower: 11% for the first, 13% for the second.

Molecule `NC(N)=Nc1nc(CSCCC(N)=NS(N)(=O)=O)cs1` [FAMOTIDINE] has an inhibition at 20000 µM of 14%.

same assay, conditions: read-out: inhibition LmjIPCS

Compared with `COc1ccc(C[C@H](N)C(=O)N[C@H]2[C@@H](O)[C@H](n3cnc4c(N(C)C)ncnc43)O[C@@H]2CO)cc1` [PUROMYCIN], `N[C@@H](Cc1ccc(O)c(O)c1)C(=O)O` [LEVODOPA] is higher in inhibition: 20% for the first, 21% for the second.

`C[C@]12C=CC(=O)C=C1CC[C@@H]1[C@@H]2[C@@H](O)C[C@@]2(C)[C@H]1CC[C@]2(O)C(=O)CO` [PREDNISOLONE] and `CC1(C)S[C@@H]2[C@H](NC(=O)Cc3ccccc3)C(=O)N2[C@H]1C(=O)O` [BENZYL PENICILLIN] are the same in inhibition: 21% for the first, 21% for the second.

First: Nc1nc(=O)c2nc(CNc3ccc(C(=O)N[C@@H](CCC(=O)O)C(=O)O)cc3)cnc2[nH]1 [FOLIC ACID]
Second: CC1(C)S[C@@H]2[C@H](NC(=O)[C@H](N)c3ccccc3)C(=O)N2[C@H]1C(=O)O [AMPICILLIN]
The inhibition of the first is lower: 5.56% for the first, 29% for the second.

Going from `Nc1ccc(S(=O)(=O)c2ccc(N)cc2)cc1` [DAPSONE] to `Cc1cc(C)nc(NS(=O)(=O)c2ccc(N)cc2)n1` [SULFAMETHAZINE], the inhibition rises from 1.23% to 1.49%.

First: Cc1c(N(C)C)c(=O)n(-c2ccccc2)n1C [AMINOPHENAZONE]
Second: CCn1cc(C(=O)O)c(=O)c2cc(F)c(N3CCNC(C)C3)c(F)c21 (stereo not shown) [LOMEFLOXACIN]
The inhibition of the first is lower: -19% for the first, 4% for the second.

Going from `Oc1ccc(/C=C/c2cc(O)cc(O)c2)cc1` [RESVERATROL] to `Cc1c(C(N)=O)cc([N+](=O)[O-])cc1[N+](=O)[O-]` [DINITOLMIDE], the inhibition rises from -9% to 5%.

Going from `NCCCC(=O)O` [gamma-AMINOBUTYRIC ACID] to `CCn1cc(C(=O)O)c(=O)c2cnc(N3CCCC3)nc21` [PIROMIDIC ACID], the inhibition rises from -20% to 8.53%.

same assay, conditions: screening of NINDS set, sheet Screen 1; read-out: inhibition LmjIPCS

Compared with `CC(C)(C)NCC(O)c1cc(O)cc(O)c1` (stereo not shown) [TERBUTALINE], `COc1ccc(/C=C/C(=O)Nc2ccccc2C(=O)O)cc1OC` is lower in inhibition: 9% for the first, 6.57% for the second.

First: CCCCN1CCCCC1C(=O)Nc1c(C)cccc1C (stereo not shown) [BUPIVACAINE]
Second: CN(CCOc1ccc(CC2SC(=O)NC2=O)cc1)c1ccccn1 (stereo not shown) [ROSIGLITAZONE]
The inhibition of the first is higher: 5.35% for the first, 2.64% for the second.

same assay, conditions: single concentration 20mM as printed; screening of NINDS set, sheet Screen 1

For `CC(=O)Oc1ccc2c(c1)CC[C@@H]1[C@@H]2CC[C@]2(C)[C@@H](OC(C)=O)CC[C@@H]12` [ESTRADIOL DIACETATE], the “20mM inhibition LmjIPCS” value was 1.59%.
